Data from publication PMC4393083, “Antiviral Activity and Possible Mechanism of Action of Constituents Identified in Paeonia lactiflora Root toward Human Rhinoviruses” (PLoS ONE, 2015).
Like-named read-outs stand apart in the source and are kept apart here.

Tests used:
HRV = details: read-out: IC50 (anti-HRV); cited from earlier work
[1] = Cytotoxicity MTT assay in HeLa cells; assay type: cell-based; details: human, tetrazolium assay, read-out: CC50 (95% CL)
Method: (§1) The cytotoxicity of the test materials to two human cell lines was evaluated using an MTT assay described previously by Morgan. In brief, a 10× stock solution of MTT was prepared by adding 5 mg/mL MTT in phosphate-buffered saline (PBS) (pH 7.4). The stock solution was sterile-filtered and stored at −20°C. HeLa and MRC5 cells were seeded onto 96-well culture plates at a density of 3 × 10^4 cells per well for 1 day. The culture medium was removed and the plates with monolayer cells were replaced with media containing several different concentrations (1–1000 μg/mL) of the test materials in dimethylsulfoxide (DMSO). After incubation at 37°C and 5% CO2 for 2 days, the culture plates were then washed once with 200 μL PBS. A volume of 100 μL medium containing 0.05% MTT were added to each well and then incubated for 4 h at the same condition. After then, MTT solution was removed and 150 μL DMSO was added to each well. Finally, the plate was shaken for 15 min to dissolve the purple formazan crystals that had formed. Absorbance was read at 560 nm by using a VersaMax microplate reader (Molecular Devices, Sunnyvale, CA) with a reference absorbance at 670 nm.
(§2) The CC50 and IC50 values were determined using GraphPad Prism 5 software program (GraphPad Software, La Jolla, CA). […] The selectivity index (SI) was determined as the ratio of CC50 to IC50 [23]. All data represent the mean ± SD of duplicate or triplicate samples of three independent experiments. […] Data from two groups were analyzed by a Student’s t-test, and multiple groups were analyzed by a one-way analysis of variance and Bonferroni multiple comparison post-test.

[2] = Cytotoxicity MTT assay in MRC5 cells; assay type: cell-based, human; details: human, tetrazolium assay, read-out: CC50 (95% CL)
Method: as §1, §2

MRC5 cells = experiment: Cytotoxicity MTT assay in MRC5 cells; assay type: cell-based, human
Method: as §1, §2

HRV-2 [3] = experiment: Cytopathic effect inhibition assay (MTT), HRV-2 in HeLa cells; assay type: cell-based, human rhinovirus; details: read-out: IC50 (95% CL) HRV-2
Method: (§3) Monolayers of HeLa and MRC5 cells were seeded onto a 96-well culture plate as stated previously. Subsequently, 90 μL media containing several different concentrations (1–1000 μg/mL) of each test material in DMSO was put into the wells, and then 10 μL of 10×TCID50 of the virus stock was added to produce an appropriate CPE within 2 days after infection. Ribavirin served as a reference control and was similarly prepared. Negative controls consisted of the DMSO solution. Viral inhibition rate (VIR) (%) was calculated according to the formula [21], VIR = (A tV—A cV)/(A cd—A cV) × 100, where A tV is the optical density measured with a given concentration of the test compound in HRV infected cells; A cV is the optical density measured for the control untreated HRV infected cells; A cd is the optical density measured for the control untreated HRV uninfected cells.
(§4) The CC50 and IC50 values were determined using GraphPad Prism 5 software program (GraphPad Software, La Jolla, CA). […] The selectivity index (SI) was determined as the ratio of CC50 to IC50 [23]. All data represent the mean ± SD of duplicate or triplicate samples of three independent experiments. Statistical analyses were carried out using SAS 9.13 program (SAS Institute, Cary, NC). Data from two groups were analyzed by a Student’s t-test, and multiple groups were analyzed by a one-way analysis of variance and Bonferroni multiple comparison post-test.

HRV-4 [4] = experiment: Cytopathic effect inhibition assay (MTT), HRV-4 in HeLa cells; assay type: cell-based, human rhinovirus; details: Human rhinovirus sp., HRV4, HeLa, read-out: IC50 (95% CL) HRV-4
Method: Extraction procedures of air-dried root of P. lactiflora were performed as described previously by Ngan et al.. For isolation of active principles, viral CPE inhibition assay toward HRV-4 in HeLa cell was used. […]. Column fractions were monitored by TLC on silica gel plates developed with chloroform and methanol (7:3 by volume) mobile phase. Fractions with similar R f values on the TLC plates were pooled. Active fractions 4 to 5 (EI, 2.44 g) and 7 (EII, 0.569 g) were obtained. The active fraction EI was rechromatographed on a silica gel column by elution with chloroform and methanol (70:30 by volume) to give nine fractions (each about 450 mL). A preparative HPLC was used for separation of constituents from the active fractions 3 to 5 (0.176 g). The column was a 4.6 mm i.d. × 150 mm Eclipse XDB-C18 (Agilent, Santa Clara, CA) using a mobile phase of methanol and water (3:7 by volume) at a flow rate of 0.5 mL/min. Chromatographic separations were monitored using a UV detector at 260 nm. […]. The three antiviral principles were characterized as paeonol (PA) (1), gallic acid (GA) (2), and 1,2,3,4,6-penta-O-galloyl-β-D-glucopyranose (PGG) (3) (Fig 1) by spectroscopic analyses, including MS and NMR. PA (1): compound 1 was isolated as an antibacterial principle from P. lactiflora root in our previous work, and the spectral data of compound 1 was largely identical to the published data. GA (2) was identified on the basis of the following evidence: white powder. UV (MeOH): λmax nm = 260. FT-IR: v max cm^–1 = 3491–3063 (OH stretch), 1608 (aromatic C = C). […] The interpretations of proton and carbon signals of compound 2 were largely consistent with those of Sakar et al.. PGG (3): compound 3 was isolated as an antibacterial principle from P. lactiflora root in our previous work, and the spectral data of compound 3 was largely identical to the published data.
as §3, §4

HRV-2 [5] = experiment: Cytopathic effect inhibition assay (MTT), HRV-2 in MRC5 cells; assay type: cell-based, human rhinovirus; details: HRV-2 in MRC5 cells
Method: as §3, §4

HRV-4 [6] = experiment: Cytopathic effect inhibition assay (MTT), HRV-4 in MRC5 cells; assay type: cell-based, human rhinovirus; details: HRV-4 in MRC5 cells
Method: as §3, §4

[7] = system: two HRVs (HRV-2 and HRV-4); experiment: Cytopathic effect inhibition assay, summary over both serotypes; assay type: cell-based, human rhinovirus; details: Rhinovirus A; range over HRV-2 and HRV-4, HeLa and MRC5 cells; read-out: IC50 toward two HRVs (range)
Method: as §3, §4

| Molecule | IC50 (HRV) [µM] | further results |
| --- | --- | --- |
| COc1cc2ccc(=O)oc2c(OC)c1OC [6,7,8-trimethoxycoumarin] | 12 | – |
| C/C(=C\COc1ccc2ccc(=O)oc2c1)CC[C@@H]1C(C)(C)[C@H]2CC[C@]1(C)O2 [farnesiferol C] | ~2.61 | – |
| COc1cc2c(cc1OC)-c1c(OC)c(OC)cc3c1[C@H](C2)N(C)CC3 [glaucine] | 22 | – |
| (S)-ribalinine | 83 | – |
| COc1cc2cc(Oc3ccc4ccc(=O)oc4c3)c(=O)oc2cc1OC [daphnoretin methyl ether] | 97.1 | – |
| COc1cc(O)c2c(=O)c(OC)c(-c3ccc(O)c(OC)c3)oc2c1 [4ʹ,5-dihydroxy-3ʹ,3,7-trimethoxyflavone] | 0.29 | – |
| C=C1CCC2CC(C(=C)C)C2(C)CCC(C(=C)C(=O)O)CC1CC=C(C)C (stereo not drawn) [raoulic acid] | 0.51 | – |
| COc1cc2c(c(O)c1OC)c(=O)c1ccccc1n2C [arborinine] | 3.19 | – |
| O=c1c(-c2ccc(O)c(O)c2)coc2cc(O[C@@H]3O[C@H](CO)[C@@H](O)[C@H](O)[C@H]3O)cc(O)c12 [orobol 7-O-D-glucoside] | 1.29 to 19.6 | – |
| O=C(O)c1cc(O)c(O)c(O)c1 [GA, gallic acid] | ~295 | CC50 at 2 days [1]: 1500 µM; CC50 at 2 days [2]: 218 µM; concentration toxic to cells (MRC5 cells): ≥ 290 µM; IC50 (HRV-2 [3]; Rhinovirus A, HRV2, HeLa): 427 µM; IC50 (HRV-2 [3]): 427 µM; IC50 (HRV-4 [4]): 448 µM; IC50 (95% CL) HRV-2 (HRV-2 [5]): ineffective; IC50 (95% CL) HRV-4 (HRV-4 [6]): ineffective; IC50 [7]: 427 to 448 µM |
| C=C1CC[C@@H](O)C(C)(C)C1CC/C(C)=C/COc1ccc2ccc(=O)oc2c1 (stereo partly drawn) [farnesiferol B] | ~2.61 | – |
| C[C@@H]1CC[C@]2(C(=O)O)CC[C@]3(C)C(=CC[C@@H]4[C@@]5(C)C[C@@H](O)[C@H](OC(=O)/C=C/c6ccc(O)c(O)c6)C(C)(C)[C@@H]5CC[C@]43C)[C@@H]2[C@]1(C)O (relative stereo) [3-O-trans-caffeoyltormentic acid] | 30.7 | – |
